Data set [1] can be described thus: In vitro cellular toxicity to CHO cells. It counts as cell-based. As to conditions: Chinese hamster, read-out: CHO cells IC50 ± SE.
For the next data set, the target named is human PAD4 (Homo sapiens, UniProt Q9UM07). Briefly: Inhibition of PAD4 enzyme activity (BAEE substrate, colorimetric, 530 nm). It counts as biochemical.
The next data set addresses T1, human PAD1 (Homo sapiens, UniProt Q9ULC6).
T1 sequence (Q9ULC6 1-663): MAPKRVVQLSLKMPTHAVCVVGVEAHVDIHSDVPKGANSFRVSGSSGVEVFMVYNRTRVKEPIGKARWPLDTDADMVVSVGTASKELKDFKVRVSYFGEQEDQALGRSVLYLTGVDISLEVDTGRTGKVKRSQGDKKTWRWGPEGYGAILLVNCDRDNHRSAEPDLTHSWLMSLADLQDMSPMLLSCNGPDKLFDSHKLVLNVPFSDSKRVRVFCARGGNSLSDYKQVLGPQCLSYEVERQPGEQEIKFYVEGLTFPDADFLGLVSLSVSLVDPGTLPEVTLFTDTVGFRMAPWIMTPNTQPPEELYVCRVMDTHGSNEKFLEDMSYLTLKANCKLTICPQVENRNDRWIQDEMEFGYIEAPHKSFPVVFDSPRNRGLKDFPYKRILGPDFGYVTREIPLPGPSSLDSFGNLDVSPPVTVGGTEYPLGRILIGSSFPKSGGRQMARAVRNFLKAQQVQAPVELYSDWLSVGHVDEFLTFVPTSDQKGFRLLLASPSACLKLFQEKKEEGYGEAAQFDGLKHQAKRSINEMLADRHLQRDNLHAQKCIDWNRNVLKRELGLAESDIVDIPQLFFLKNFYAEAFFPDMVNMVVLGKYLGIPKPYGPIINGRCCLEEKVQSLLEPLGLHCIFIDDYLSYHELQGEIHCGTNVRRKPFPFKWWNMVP
As to the kind of experiment: Inhibition of PAD1 enzyme activity (BAEE substrate, colorimetric, 530 nm). It counts as biochemical. As to conditions: for Ki: Table 2, read-out: PAD Ki ± SE (μM), PAD1. Here is the method:
Control reaction contained no inhibitor. Enzyme was added to initiate the reaction. The reaction samples were incubated at 37° C. for 30 min. Color reagent was added and the samples were boiled for 15 min. Samples were cooled on ice, further processed, and the absorbance was measured at 530 nm. Remaining activity was calculated as a percentage of the uninhibited samples.

A further data set deals with rabbit PAD2 (Oryctolagus cuniculus, UniProt G1T837). Briefly: Inhibition of PAD2 enzyme activity. It counts as biochemical. As to conditions: for IC50: rabbit PAD2, Table 1.
A further data set concerns MOG-EAE mouse model. Briefly: MOG-EAE mouse model, compound of Formula (Ia). It counts as in vivo, C57BL/6 mice. As for the experimental part: On day 8 after the induction of EAE, mice received 2 mg of the compound of Formula ([…].) every other day until day 23. […] Mice were sacrificed on day 24 (i.e. after 2 weeks of treatment) and anti-CD3 staining on spinal cord and brain samples was undertaken.

The subject of another data set is mice. As to the kind of experiment: Mouse toxicity studies. It counts as in vivo.
A further data set relates to ND4 mouse. As to conditions: cited from earlier work.
In another data set the test system is MOG-EAE model. As to conditions: cited from earlier work.
Data set [2] has as its system PAD enzyme activity (i.e. PAD2 and PAD4). As to conditions: after addition of 2CA to human brain extracts; cited from earlier work.
[3] abbreviates: Table 2, read-out: PAD Ki ± SE (μM), PAD4.
The mark [4] stands for this setting: Example 8, read-out: equilibrium inhibition constant Ki against PAD2.

Like-named read-outs stand apart in the source and are kept apart here. Where only a bound is given, the exact number is not on record here.

Sequence of human PAD4 (Q9UM07 whole entry): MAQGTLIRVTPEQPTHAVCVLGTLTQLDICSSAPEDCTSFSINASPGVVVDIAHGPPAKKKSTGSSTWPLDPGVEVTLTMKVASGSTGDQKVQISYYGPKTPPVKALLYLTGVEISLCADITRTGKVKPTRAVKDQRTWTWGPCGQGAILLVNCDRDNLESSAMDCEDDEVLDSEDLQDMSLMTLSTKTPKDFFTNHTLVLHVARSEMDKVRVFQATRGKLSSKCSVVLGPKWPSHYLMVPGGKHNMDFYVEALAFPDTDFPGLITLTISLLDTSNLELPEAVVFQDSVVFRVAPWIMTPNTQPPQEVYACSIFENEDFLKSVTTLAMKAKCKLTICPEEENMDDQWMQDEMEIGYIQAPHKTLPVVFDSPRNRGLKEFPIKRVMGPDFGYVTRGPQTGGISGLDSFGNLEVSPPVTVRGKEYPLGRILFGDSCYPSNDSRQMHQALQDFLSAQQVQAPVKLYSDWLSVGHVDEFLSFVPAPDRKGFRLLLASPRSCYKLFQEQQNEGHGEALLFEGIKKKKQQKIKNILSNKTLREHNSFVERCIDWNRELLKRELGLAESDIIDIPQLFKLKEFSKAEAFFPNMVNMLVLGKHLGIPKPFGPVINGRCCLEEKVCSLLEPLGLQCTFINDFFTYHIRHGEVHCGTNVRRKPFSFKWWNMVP
Sequence of rabbit PAD2 (G1T837 1-665): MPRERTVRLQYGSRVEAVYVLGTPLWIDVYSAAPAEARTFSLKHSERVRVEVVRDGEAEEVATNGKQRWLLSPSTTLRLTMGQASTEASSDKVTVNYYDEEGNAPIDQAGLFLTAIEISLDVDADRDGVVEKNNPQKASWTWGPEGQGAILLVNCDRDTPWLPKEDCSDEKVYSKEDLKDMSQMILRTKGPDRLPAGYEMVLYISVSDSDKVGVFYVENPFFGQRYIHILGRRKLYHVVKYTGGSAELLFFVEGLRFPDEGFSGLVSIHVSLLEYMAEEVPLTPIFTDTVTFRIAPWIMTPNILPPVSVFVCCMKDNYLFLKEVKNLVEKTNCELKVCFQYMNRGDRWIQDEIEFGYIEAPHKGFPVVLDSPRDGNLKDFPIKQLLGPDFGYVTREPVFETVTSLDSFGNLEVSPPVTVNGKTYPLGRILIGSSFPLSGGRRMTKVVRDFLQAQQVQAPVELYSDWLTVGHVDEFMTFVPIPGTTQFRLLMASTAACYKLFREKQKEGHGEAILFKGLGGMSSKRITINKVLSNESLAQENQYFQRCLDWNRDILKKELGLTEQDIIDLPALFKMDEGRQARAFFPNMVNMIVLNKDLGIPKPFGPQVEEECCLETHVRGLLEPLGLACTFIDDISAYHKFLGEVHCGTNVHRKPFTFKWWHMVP

In general, IC50 refers to the concentration that gives 50% inhibition. As a reminder, the Ki is a measure of affinity in units of concentration, obtained from inhibition or displacement. Turning to `CC1(C)NC(=O)N(CCN)C1=O` [I(i)], the IC50 in data set [1] was found to be 5840 ± 2370 µM. The inhibition constant Ki on human PAD4 (setting [3]) stood at 317 ± 32.8 µM; at human PAD1, 117 ± 41.1 µM.

For the compound `CCOC(=O)CC1(C)NC(=O)N(CN2CCNCC2)C1=O` (centres unmarked) [Formula (Ib), Ethyl [4-methyl-2,5-dioxo-1-(piperazin-1-ylmethyl)imidazolidin-4-yl]acetate], the IC50 turned out to be 36 ± 18 µM at human PAD4 (human PAD4, Table 1, varies with salt form and batch of the enzyme, read-out: IC50 (μM), PAD4); 12.3 ± 4.8 µM at rabbit PAD2. In addition, on rabbit PAD2 (setting [4]), the Ki worked out at 0.46 µM.

Turning to `CN1CCN(CN2C(=O)NC(C)(C)C2=O)CC1` [I(e)], in data set [1], the IC50 turned out to be 143 ± 4 µM. In addition, the inhibition constant (Ki) on human PAD4 (setting [3]) was 45.6 ± 9 µM; at human PAD1, 115 ± 5.5 µM.

For orientation: inhibition means the relative decrease from the control value, in per cent. As to `CC1(C)NC(=O)N(CN2CCNCC2)C1=O` [Formula (Ia)], the IC50 is 48.3 ± 7.4 µM at human PAD4; at most 3820 µM at human PAD4 (read-out: IC50 (μM), PAD4, human PAD4, Table 1, varies with salt form and batch of the enzyme); 763 µM on human PAD1 (Table 1). The inhibitory constant (Ki) on human PAD4 was 7.4 µM; on rabbit PAD2 it was 0.93 µM. The inhibition at 30 µM at human PAD4 (read-out: Inhibition of the enzyme activity) is 78%. The clinical scores with MOG-EAE mouse model (2 mg b.i.d. i.p. every other day, day 8 to day 23, control group higher than 2) is around 1. Besides, the “CD3 markers in brain” value with MOG-EAE mouse model (anti-CD3 staining, sacrificed day 24, untreated 4.8±0.19) is 3.8±0.23 /mm^2. For the same compound, in the data set on MOG-EAE mouse model (sacrificed day 24), the “PAD activity in treated brain samples” value is listed as “much reduced”. Moreover, the general toxicity entry in the data set with mice (10 mg/mouse for 5 days) and with mice (single 20 mg/mouse dose) was “no general toxicity” in each case.

Turning to `CC1(C)NC(=O)N(CCNCCN)C1=O` [I(j)], in [1], the IC50 came to 2690 ± 175 µM. In addition, the inhibitory constant (Ki) on human PAD4 (setting [3]) came to 52 ± 34.1 µM; at human PAD1 it was 55.5 ± 12.3 µM.

Regarding `CC1(C)NC(=O)N(CCNCC(N)=O)C1=O` [I(h)], the “Inhibition of PAD4, in words” value on human PAD4 was “good activity”. In addition, the inhibition constant (Ki) came out at 21.8 ± 7.1 µM at human PAD4 (setting [3]) and 33.6 ± 2.6 µM on human PAD1.

As for `CC1(C)NC(=O)N(CCn2ccnc2)C1=O` [I(g)], the 50% inhibitory concentration (IC50) in [1] was determined as 1990 ± 823 µM. The Ki was 4 ± 1.7 µM on human PAD4 (setting [3]) and 110 ± 4 µM at human PAD1.

Consider `CC1(C)NC(=O)N(CCCN)C1=O` [I(k)], for which the Ki on human PAD4 (setting [3]) was 384 ± 41 µM; on human PAD1, 105 ± 22.1 µM.

Take `CC(C)(C)OC(=O)CC1(C)NC(=O)N(CN2CCNCC2)C1=O` (centres unmarked) [Formula (Ic), tert-Butyl-[4-methyl-2,5-dioxo-1-(piperazin-1-ylmethyl)imidazolidin-4-yl]acetate]: the Ki at rabbit PAD2 (setting [4]) worked out at 0.65 µM. The same compound came in with a 50% inhibitory concentration (IC50) at rabbit PAD2 of 16.8 ± 7 µM.

Take `CC1(C)NC(=O)N(CCCNCCN)C1=O` [I(l)]: in [1], the 50% inhibitory concentration (IC50) worked out at 16700 ± 31600 µM. Besides, the Ki amounted to 123 ± 14.7 µM at human PAD4 (setting [3]) and 42.9 ± 5 µM at human PAD1.

Consider `N=C(N)CCl` [Compound 2CA, 2-chloroacetamidine], for which, in the data set with ND4 mouse (5 mg/kg i.p. every other day, from 3.5 months up to 6 months of age), the “disease progression in ND4 mice, treatment after early onset” value was “did not show disease progression”. Also, in the data set on ND4 mouse (5 mg/kg i.p. every other day, started at 2 months of age), the “disease in ND4 mice, treatment before onset” value is “essentially prevented the disease”. Besides, in the data set with ND4 mouse (ND4 mice, right after cessation of treatment at 6 months), the “PAD activity in brain” value is given as “attenuated”. In addition, the “deaths in the treatment groups” value with ND4 mouse (ND4 mice, until 6 months of age) is “none died”. Further, in the data set with ND4 mouse (treated ND4 mice, healthy littermates 0.74+0.13, ND4 0.96+0.3), the “G-ratio (axon diameter/fiber diameter), optic nerve” value was 0.9+0.15. Also, the “survival by day 30” value in the data set with MOG-EAE model (5 mg/kg i.p. every other day starting day 9) is around 50%. In addition, in the data set with MOG-EAE model (EAE mice), the “PAD activity in brain white matter” value is reported as “effectively attenuated” and the “PAD activity in spinal cord” value was “reductions to normal levels”. In the data set on MOG-EAE model (treated group), the relapse result is given as “No relapse”. The disease lethality entry in the data set on MOG-EAE model (treatment started before immunization) is recorded as “zero”. Also, the “PAD activity in NAWM extracts” value in data set [2] was “declined”.
